Measurements published in ChEMBL document CHEMBL3217573, “Diacrylamides as selective G-quadruplex ligands in in vitro and in vivo assays” (Medchemcomm, 2011).
Calls of active or inactive are those of the source. The calls are words filed in the database; no cut-off is given here.

Experiments:
[1] = Displacement of thiazole orange from ds26 DNA (unknown origin) preincubated for 10 mins measured after 3 mins by fluorescence spectra analysis
[2] = Displacement of thiazole orange from 22AG DNA (unknown origin) preincubated for 10 mins measured after 3 mins by fluorescence spectra analysis
[3] = system: unidentified; experiment: Selectivity ratio of ligand concentration required to displace thiazole orange from 22AG DNA (unknown origin) to same extent as percentage displacement from ds26 DNA (unknown origin) at 2.5 uM of compound
[4] = system: MCF7; experiment: Cytotoxicity against human MCF7 cells assessed as reduction of cell viability at 2.5 uM after 24 hrs by MTT assay; assay type: functional
[5] = system: MCF7; experiment: Cytotoxicity against human MCF7 cells assessed as reduction of cell viability after 10 days by MTT assay; assay type: functional, cell-based; conditions: MCF7, 240 h
[6] = system: Caco-2; experiment: Induction of apoptosis in human Caco2 cells after 48 hrs by MTT assay; assay type: functional, cell-based
[7] = system: MCF7; experiment: Cytotoxicity against human MCF7 cells assessed as reduction of cell viability after 10 days by MTT assay relative to control; assay type: functional
[8] = system: MCF7; experiment: Induction of apoptosis in human MCF7 cells after 48 hrs by MTT assay; assay type: functional, cell-based

Kd [1]	Kd [2]	Selectivity ratio [3]	SMILES	Activity [4]	IC50 [5]	Activity [6]	Activity [7]	Activity [8]
360 nM	70 nM	5.6	CC(=O)CC(C)(C)NC(=O)/C=C/c1c2ccccc2c(/C=C/C(=O)NC(C)(C)CC(C)=O)c2ccccc12					
1770 nM	216000 nM	0.1	COc1ccc2cc3[n+](cc2c1OC)CCc1cc2c(cc1-3)OCO2 [BERBERINE]					
290 nM	20200 nM	0	O=C(/C=C/c1c2ccccc2c(/C=C/C(=O)N2CCOCC2)c2ccccc12)N1CCOCC1	40%				
22600 nM		0	O=C(/C=C/c1c2ccccc2c(/C=C/C(=O)NC(CO)(CO)CO)c2ccccc12)NC(CO)(CO)CO					
2090 nM	30 nM	33.3	NC(=O)/C=C/c1c2ccccc2c(/C=C/C(N)=O)c2ccccc12		2500 nM	inactive	>80%	inactive
1760 nM	170 nM	5	O=C(/C=C/c1c2ccccc2c(Br)c2ccccc12)N1CCOCC1					
